According to the supplement of paper PMC5908809:

What was measured:
[1] = tested on: normal NK cells expanded with K562-aAPC; test: percent inhibition of viability; higher = more inhibition; settings: 72 h, IL-2 2.5 ng/mL
Method: (§1)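 Drug sensitivity and resistance testing on K562-aAPC-expanded normal NK cells: 5 concentrations (10-fold steps over a 10,000-fold range), 72 h at 37 °C, viability by CellTiter-Glo normalised to DMSO and benzethonium chloride controls; DSS from the fitted curve.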

DERL-7 (IL-2 2.5 ng/mL) [2] = test: as above; settings: 72 h
IMC-1 (IL-2 20 ng/mL) [3] = test: as above; settings: 72 h
KAI3 (IL-2 2.5 ng/mL) [4] = test: as above; settings: 72 h
KHYG-1 (IL-2 2.5 ng/mL) [5] = test: as above; settings: 72 h
NK-92 (IL-2 2.5 ng/mL) [6] = test: as above; settings: 72 h
NK-YS (IL-2 2.5 ng/mL) [7] = test: as above; settings: 72 h
NKL (IL-2 2.5 ng/mL) [8] = test: as above; settings: 72 h
SNK-6 (IL-2 2.5 ng/mL) [9] = test: as above; settings: 72 h
YT (IL-2 2.5 ng/mL) [10] = test: as above; settings: 72 h
[11] = tested on: normal primary NK cells, pool 1 (3 donors) (IL-2 2.5 ng/mL); test: as above; settings: 72 h
[12] = tested on: normal primary NK cells, pool 1 (3 donors), resting (IL-2 0 ng/mL); test: as above; settings: 72 h
[13] = tested on: normal primary NK cells, pool 2 (3 donors) (IL-2 2.5 ng/mL); test: as above; settings: 72 h
[14] = tested on: normal primary NK cells, pool 3 (3 donors) (IL-2 2.5 ng/mL); test: as above; settings: 72 h
[15] = tested on: normal NK cells expanded with K562-aAPC; test: drug sensitivity score (DSS) (DSS units); higher = more sensitive; extreme values may be limits of the assay; settings: 72 h; IL-2 2.5 ng/mL
Method: as §1

DERL-7 (IL-2 2.5 ng/mL) [16] = test: as above; settings: 72 h
IMC-1 (IL-2 20 ng/mL) [17] = test: as above; settings: 72 h
KAI3 (IL-2 2.5 ng/mL) [18] = test: as above; settings: 72 h
KHYG-1 (IL-2 2.5 ng/mL) [19] = test: as above; settings: 72 h
NK-92 (IL-2 2.5 ng/mL) [20] = test: as above; settings: 72 h
NK-YS (IL-2 2.5 ng/mL) [21] = test: as above; settings: 72 h
NKL (IL-2 2.5 ng/mL) [22] = test: as above; settings: 72 h
SNK-6 (IL-2 2.5 ng/mL) [23] = test: as above; settings: 72 h
YT (IL-2 2.5 ng/mL) [24] = test: as above; settings: 72 h
[25] = tested on: normal primary NK cells, pool 1 (3 donors) (IL-2 2.5 ng/mL); test: as above; settings: 72 h
[26] = tested on: normal primary NK cells, pool 1 (3 donors), resting (IL-2 0 ng/mL); test: as above; settings: 72 h
[27] = tested on: normal primary NK cells, pool 2 (3 donors) (IL-2 2.5 ng/mL); test: as above; settings: 72 h
[28] = tested on: normal primary NK cells, pool 3 (3 donors) (IL-2 2.5 ng/mL); test: as above; settings: 72 h

## CCCCc1nc2cc(/C=C/C(=O)NO)ccc2n1CCN(CC)CC [Pracinostat] (max concentration tested 10000 nM)
[1]; 1 nM
  percent inhibition of viability: 1.37%
[1]; 10 nM
  percent inhibition of viability: 8.83%
[1]; 100 nM
  percent inhibition of viability: 23.6%
[1]; 1000 nM
  percent inhibition of viability: 100%
[1]; 10000 nM
  percent inhibition of viability: 101%
DERL-7 (IL-2 2.5 ng/mL) [2]; 1 nM
  percent inhibition of viability: 1.33%
DERL-7 (IL-2 2.5 ng/mL) [2]; 10 nM
  percent inhibition of viability: -8.53%
DERL-7 (IL-2 2.5 ng/mL) [2]; 100 nM
  percent inhibition of viability: 21.4%
DERL-7 (IL-2 2.5 ng/mL) [2]; 1000 nM
  percent inhibition of viability: 100%
DERL-7 (IL-2 2.5 ng/mL) [2]; 10000 nM
  percent inhibition of viability: 100%
IMC-1 (IL-2 20 ng/mL) [3]; 1 nM
  percent inhibition of viability: -2.79%
IMC-1 (IL-2 20 ng/mL) [3]; 10 nM
  percent inhibition of viability: 2.79%
IMC-1 (IL-2 20 ng/mL) [3]; 100 nM
  percent inhibition of viability: 10%
IMC-1 (IL-2 20 ng/mL) [3]; 1000 nM
  percent inhibition of viability: 100%
IMC-1 (IL-2 20 ng/mL) [3]; 10000 nM
  percent inhibition of viability: 101%
KAI3 (IL-2 2.5 ng/mL) [4]; 1 nM
  percent inhibition of viability: -0.25%
KAI3 (IL-2 2.5 ng/mL) [4]; 10 nM
  percent inhibition of viability: 10.9%
KAI3 (IL-2 2.5 ng/mL) [4]; 100 nM
  percent inhibition of viability: 59.8%
KAI3 (IL-2 2.5 ng/mL) [4]; 1000 nM
  percent inhibition of viability: 100%
KAI3 (IL-2 2.5 ng/mL) [4]; 10000 nM
  percent inhibition of viability: 106%
KHYG-1 (IL-2 2.5 ng/mL) [5]; 1 nM
  percent inhibition of viability: 0.14%
KHYG-1 (IL-2 2.5 ng/mL) [5]; 10 nM
  percent inhibition of viability: -0.26%
KHYG-1 (IL-2 2.5 ng/mL) [5]; 100 nM
  percent inhibition of viability: 26.9%
KHYG-1 (IL-2 2.5 ng/mL) [5]; 1000 nM
  percent inhibition of viability: 103%
KHYG-1 (IL-2 2.5 ng/mL) [5]; 10000 nM
  percent inhibition of viability: 107%
NK-92 (IL-2 2.5 ng/mL) [6]; 1 nM
  percent inhibition of viability: 0.01%
NK-92 (IL-2 2.5 ng/mL) [6]; 10 nM
  percent inhibition of viability: -2.17%
NK-92 (IL-2 2.5 ng/mL) [6]; 100 nM
  percent inhibition of viability: 42.9%
NK-92 (IL-2 2.5 ng/mL) [6]; 1000 nM
  percent inhibition of viability: 103%
NK-92 (IL-2 2.5 ng/mL) [6]; 10000 nM
  percent inhibition of viability: 107%
NK-YS (IL-2 2.5 ng/mL) [7]; 1 nM
  percent inhibition of viability: -2.5%
NK-YS (IL-2 2.5 ng/mL) [7]; 10 nM
  percent inhibition of viability: 3.97%
NK-YS (IL-2 2.5 ng/mL) [7]; 100 nM
  percent inhibition of viability: 26.5%
NK-YS (IL-2 2.5 ng/mL) [7]; 1000 nM
  percent inhibition of viability: 93.4%
NK-YS (IL-2 2.5 ng/mL) [7]; 10000 nM
  percent inhibition of viability: 106%
NKL (IL-2 2.5 ng/mL) [8]; 1 nM
  percent inhibition of viability: -9.49%
NKL (IL-2 2.5 ng/mL) [8]; 10 nM
  percent inhibition of viability: 12.2%
NKL (IL-2 2.5 ng/mL) [8]; 100 nM
  percent inhibition of viability: 57%
NKL (IL-2 2.5 ng/mL) [8]; 1000 nM
  percent inhibition of viability: 92.3%
NKL (IL-2 2.5 ng/mL) [8]; 10000 nM
  percent inhibition of viability: 105%
SNK-6 (IL-2 2.5 ng/mL) [9]; 1 nM
  percent inhibition of viability: -6.98%
SNK-6 (IL-2 2.5 ng/mL) [9]; 10 nM
  percent inhibition of viability: 1.26%
SNK-6 (IL-2 2.5 ng/mL) [9]; 100 nM
  percent inhibition of viability: 17.8%
SNK-6 (IL-2 2.5 ng/mL) [9]; 1000 nM
  percent inhibition of viability: 96.5%
SNK-6 (IL-2 2.5 ng/mL) [9]; 10000 nM
  percent inhibition of viability: 100%
YT (IL-2 2.5 ng/mL) [10]; 1 nM
  percent inhibition of viability: 2.35%
YT (IL-2 2.5 ng/mL) [10]; 10 nM
  percent inhibition of viability: -0.3%
YT (IL-2 2.5 ng/mL) [10]; 100 nM
  percent inhibition of viability: 12.7%
YT (IL-2 2.5 ng/mL) [10]; 1000 nM
  percent inhibition of viability: 100%
YT (IL-2 2.5 ng/mL) [10]; 10000 nM
  percent inhibition of viability: 105%
[11]; 1 nM
  percent inhibition of viability: -0.69%
[11]; 10 nM
  percent inhibition of viability: -4.78%
[11]; 100 nM
  percent inhibition of viability: 22.1%
[11]; 1000 nM
  percent inhibition of viability: 96.7%
[11]; 10000 nM
  percent inhibition of viability: 97.5%
[12]; 1 nM
  percent inhibition of viability: 0.06%
[12]; 10 nM
  percent inhibition of viability: -6.1%
[12]; 100 nM
  percent inhibition of viability: 49.2%
[12]; 1000 nM
  percent inhibition of viability: 86.2%
[12]; 10000 nM
  percent inhibition of viability: 90.8%
[13]; 1 nM
  percent inhibition of viability: -8.41%
[13]; 10 nM
  percent inhibition of viability: -3.58%
[13]; 100 nM
  percent inhibition of viability: 22.6%
[13]; 1000 nM
  percent inhibition of viability: 94.5%
[13]; 10000 nM
  percent inhibition of viability: 94.8%
[14]; 1 nM
  percent inhibition of viability: -9.56%
[14]; 10 nM
  percent inhibition of viability: -4.29%
[14]; 100 nM
  percent inhibition of viability: 13.1%
[14]; 1000 nM
  percent inhibition of viability: 97.8%
[14]; 10000 nM
  percent inhibition of viability: 98.9%
[15]
  drug sensitivity score: 21.7
DERL-7 (IL-2 2.5 ng/mL) [16]
  drug sensitivity score: 21.4
IMC-1 (IL-2 20 ng/mL) [17]
  drug sensitivity score: 19.6
KAI3 (IL-2 2.5 ng/mL) [18]
  drug sensitivity score: 25.4
KHYG-1 (IL-2 2.5 ng/mL) [19]
  drug sensitivity score: 22.1
NK-92 (IL-2 2.5 ng/mL) [20]
  drug sensitivity score: 23.6
NK-YS (IL-2 2.5 ng/mL) [21]
  drug sensitivity score: 20.3
NKL (IL-2 2.5 ng/mL) [22]
  drug sensitivity score: 24.6
SNK-6 (IL-2 2.5 ng/mL) [23]
  drug sensitivity score: 20.1
YT (IL-2 2.5 ng/mL) [24]
  drug sensitivity score: 20.1
[25]
  drug sensitivity score: 21.1
[26]
  drug sensitivity score: 22.5
[27]
  drug sensitivity score: 20.6
[28]
  drug sensitivity score: 19.9
